Each structure is given as a SMILES string. Where “and” joins values, the source holds several entries; their conditions need not be identical. Equal values may be shown once. Inconclusive results and toxic doses are left out.

In this assay the test system is BDF1 mice, P388 leukemia ip, median survival T/C. Kind of assay: NCI In Vivo Anticancer Drug Screen. Data for tumor model P388 Leukemia (intraperitoneal) in B6D2F1 (BDF1) mice. As to conditions: endpoint: median survival time, higher = longer survival. In short, it runs like this:
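Vehicle-dosed animals serve as the reference; survival of compound-dosed, tumour-implanted mice is divided by it.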

Where [1] appears, read: dose: 100.0 mg/kg/injection, schedule: Q04DX003 (ip), vehicle: saline with Tween-80.
The mark [2] stands for this setting: dose: 200.0 mg/kg/injection, schedule: Q04DX003 (ip), vehicle: saline with Tween-80.
Where [3] appears, read: dose: 400.0 mg/kg/injection, schedule: Q04DX003 (ip), vehicle: saline with Tween-80.
Setting [4] is: dose: 100.0 mg/kg/injection, schedule: Q01DX009 (ip), vehicle: saline with Tween-80.
Setting [5] is: dose: 200.0 mg/kg/injection, schedule: Q01DX009 (ip), vehicle: saline with Tween-80.
[6] abbreviates: dose: 400.0 mg/kg/injection, schedule: Q01DX009 (ip), vehicle: saline with Tween-80.
[7] abbreviates: dose: 50.0 mg/kg/injection, schedule: Q01DX009 (ip), vehicle: saline with Tween-80.
Where [8] appears, read: dose: 50.0 mg/kg/injection, schedule: Q01DX001 (ip), vehicle: saline sonified.
Where [9] appears, read: dose: 100.0 mg/kg/injection, schedule: Q01DX001 (ip), vehicle: saline sonified.
Where [10] appears, read: dose: 200.0 mg/kg/injection, schedule: Q01DX001 (ip), vehicle: saline sonified.
The mark [11] stands for this setting: dose: 50.0 mg/kg/injection, schedule: Q01DX009 (ip), vehicle: water.
Setting [12] is: dose: 100.0 mg/kg/injection, schedule: Q01DX009 (ip), vehicle: water.
The mark [13] stands for this setting: dose: 200.0 mg/kg/injection, schedule: Q01DX009 (ip), vehicle: water.
[14] abbreviates: dose: 200.0 mg/kg/injection, schedule: Q04DX003 (ip), vehicle: water.
Setting [15] is: dose: 400.0 mg/kg/injection, schedule: Q01DX009 (ip), vehicle: water.
[16] abbreviates: dose: 400.0 mg/kg/injection, schedule: Q04DX003 (ip), vehicle: water.
Setting [17] is: dose: 100.0 mg/kg/injection, schedule: Q04DX003 (ip), vehicle: Klucel (hydroxypropylcellulose) (HPC).
Setting [18] is: dose: 200.0 mg/kg/injection, schedule: Q04DX003 (ip), vehicle: Klucel (hydroxypropylcellulose) (HPC).
Where [19] appears, read: dose: 400.0 mg/kg/injection, schedule: Q04DX003 (ip), vehicle: Klucel (hydroxypropylcellulose) (HPC).

Regarding `O=C(COc1ccccc1[N+](=O)[O-])Nc1cccnc1`, the T/C under setting [1] is 100 % of control, the T/C under setting [2] is 95 % of control and the T/C under setting [3] was 100 % of control.
For the molecule `COc1ccc(CN2CCN(Cc3ccc(OC)c(OC)c3)C2c2ccc(OC)c(OC)c2)cc1OC`, the T/C reads like this: under setting [4], 109 % of control; under setting [1], 105 % of control; under setting [5], 100 % of control; under setting [2], 105 % of control; under setting [6], 100 % of control; under setting [3], 95 % of control.
Consider `CC(C(N)C(=O)O)C(O)c1ccc(O)cn1` (centres undefined), for which the T/C was 109 % of control (dose: 45.0 mg/kg/injection, schedule: Q01DX009 (ip), vehicle: water); 102 % of control (dose: 90.0 mg/kg/injection, schedule: Q01DX009 (ip), vehicle: water); 102 % of control (dose: 180.0 mg/kg/injection, schedule: Q01DX009 (ip), vehicle: water).
As to `CO[C@H]1/C=C/O[C@@]2(C)Oc3c(C)c(O)c4c(O)c(c(/C=N/N5CCNCC5)c(O)c4c3C2=O)NC(=O)/C(C)=C\C=C\[C@H](C)[C@H](O)[C@@H](C)[C@@H](O)[C@@H](C)C(OC(C)=O)[C@@H]1C` (some centres undefined), the T/C is, setting by setting: (dose: 50.0 mg/kg/injection, schedule: Q01DX009 (ip), vehicle: saline) 114 % of control; (dose: 100.0 mg/kg/injection, schedule: Q01DX009 (ip), vehicle: saline) 114 % of control; (dose: 200.0 mg/kg/injection, schedule: Q01DX009 (ip), vehicle: saline) 114 % of control.
As to `Cc1ccc2c(Br)cc(Br)c(O)c2n1`, the T/C is 115 % of control (dose: 10.0 mg/kg/injection, schedule: Q01DX009 (ip), vehicle: Klucel (hydroxypropylcellulose) (HPC)); 115 % of control (dose: 20.0 mg/kg/injection, schedule: Q01DX009 (ip), vehicle: Klucel (hydroxypropylcellulose) (HPC)); 115 % of control (dose: 40.0 mg/kg/injection, schedule: Q01DX009 (ip), vehicle: Klucel (hydroxypropylcellulose) (HPC)); 100 % of control (dose: 100.0 mg/kg/injection, schedule: Q01DX009 (ip), vehicle: Klucel (hydroxypropylcellulose) (HPC)).
Consider `COc1cccc2c1C(=O)c1c(O)c3c(c(O)c1C2=O)C[C@@](O)(C(C)O)C[C@@H]3OC1CC(N(Cc2ccccc2)Cc2ccccc2)C(O)C(C)O1` (some centres undefined), for which the T/C runs as follows: (dose: 2.5 mg/kg/injection, schedule: Q01DX009 (ip), vehicle: water) 108 % of control; (dose: 5.0 mg/kg/injection, schedule: Q01DX009 (ip), vehicle: water) 112 % of control; (dose: 20.0 mg/kg/injection, schedule: Q01DX009 (ip), vehicle: water) 166 % of control; (dose: 40.0 mg/kg/injection, schedule: Q01DX009 (ip), vehicle: water) 229 % of control.
`CCC1=C(C)C(=O)C2CCCCC2C1=O` (centres undefined): the T/C was 100 % of control (dose: 100.0 mg/kg/injection, schedule: Q04DX003 (ip), vehicle: saline sonified); 100 % of control (dose: 200.0 mg/kg/injection, schedule: Q04DX003 (ip), vehicle: saline sonified); 100 % of control (dose: 400.0 mg/kg/injection, schedule: Q04DX003 (ip), vehicle: saline sonified).
For the molecule `O=C(/C=C/c1ccc(OCc2ccccc2)cc1)c1ccccn1`, the T/C is, setting by setting: under setting [7], 97 % of control; under setting [4], 98 % of control; under setting [5], 96 % of control.
For the molecule `Cc1ccc(NCc2nc(N)nc(Nc3ccc(C)cc3)n2)cc1`, the T/C is, setting by setting: under setting [8], 100 % of control; under setting [9], 100 % of control; under setting [10], 90 % of control.
In the case of `NC(=O)Nc1cc(NC(N)=O)cc(N(CCO)CCO)c1`, the T/C reads like this: under setting [11], 94 % of control; under setting [12], 102 % of control; (dose: 100.0 mg/kg/injection, schedule: Q04DX003 (ip), vehicle: water) 118 % of control; under setting [13], 96 % of control; under setting [14], 102 % of control; under setting [15], 100 % of control. The T/C under setting [16] was 102 % of control.
Take `CC1(C)C2CC3C(C(=O)O)CCCC3(C2)C1Br` (centres undefined): the T/C was 90 % of control under setting [17], 100 % of control under setting [18] and 95 % of control under setting [19].
As for `CC(C)(C)OC(=O)C(CC(=O)O)=C(c1ccccc1)c1ccccc1`, the T/C was 95 % of control under setting [17], 108 % of control under setting [18] and 95 % of control under setting [19].
As for `CCCCOB(CI)OCCCC`, the T/C (dose: 1.56 mg/kg/injection, schedule: Q01DX009 (ip), vehicle: saline) was 95 % of control; the T/C (dose: 3.13 mg/kg/injection, schedule: Q01DX009 (ip), vehicle: saline) is 109 % of control; the T/C (dose: 6.25 mg/kg/injection, schedule: Q01DX009 (ip), vehicle: saline) was 89 % of control and 109 % of control.
`CCCCN(CCO)C(C#CC(C)(C)O)C(C)C` (centres undefined): the T/C was 110 % of control under setting [8], 110 % of control under setting [9] and 105 % of control under setting [10].
In the case of `CSC(N)=Nc1ccc(C(=O)O)cc1`, the T/C runs as follows: under setting [1], 100 % of control; under setting [2], 104 % of control; under setting [3], 95 % of control.
The corresponding values for `CCCCCCCC(=O)Nc1ccc(C)c(C)c1` are 109 % of control, 109 % of control and 109 % of control.
As to `Cc1cccc(C(=O)O)[n+]1[O-]`, the T/C runs as follows: under setting [4], 95 % of control; under setting [5], 90 % of control; under setting [6], 90 % of control.
With `CCOC(=O)C1CSCC1=O` (centres undefined), the T/C is, setting by setting: (dose: 12.5 mg/kg/injection, schedule: Q01DX009 (ip), vehicle: water) 113 % of control; (dose: 25.0 mg/kg/injection, schedule: Q01DX009 (ip), vehicle: water) 113 % of control; under setting [11], 98 % of control; under setting [12], 104 % of control; under setting [13], 95 % of control; under setting [14], 101 % of control. For the same molecule, the T/C (dose: 300.0 mg/kg/injection, schedule: Q04DX003 (ip), vehicle: water) was 117 % of control; the T/C under setting [15] is 101 % of control; the T/C under setting [16] was 106 % of control.
Take `Cc1ccc2nc3c(nc2c1)-c1cccc2cccc-3c12`: the T/C reads like this: under setting [1], 87 % of control; under setting [2], 91 % of control; under setting [3], 91 % of control.
On to `CN(C)c1ccc(/C=C2\C=Cc3ccccc32)cc1`, for which the T/C is, setting by setting: (dose: 3.12 mg/kg/injection, schedule: Q04DX003 (ip), vehicle: saline with Tween-80) 90 % of control; (dose: 6.25 mg/kg/injection, schedule: Q04DX003 (ip), vehicle: saline with Tween-80) 90 % of control; (dose: 12.5 mg/kg/injection, schedule: Q04DX003 (ip), vehicle: saline with Tween-80) 92 % of control and 100 % of control; (dose: 25.0 mg/kg/injection, schedule: Q01DX009 (ip), vehicle: saline with Tween-80) 100 % of control; under setting [7], 103 % of control; under setting [4], 96 % of control and 100 % of control. The T/C by setting is: under setting [5], 90 % of control; under setting [3], 96 % of control.
`COC(=O)C1=C(C)NC(=O)NC1c1ccccc1` (centres undefined): the T/C is 100 % of control (dose: 100.0 mg/kg/injection, schedule: Q01DX001 (ip), vehicle: saline with Tween-80); 100 % of control (dose: 200.0 mg/kg/injection, schedule: Q01DX001 (ip), vehicle: saline with Tween-80); 100 % of control (dose: 400.0 mg/kg/injection, schedule: Q01DX001 (ip), vehicle: saline with Tween-80).
As to `O=C(NNc1ccc(F)cc1)C12CC3CC(CC(C3)C1)C2`, the T/C under setting [7] is 104 % of control.
